Measurements published in ChEMBL document CHEMBL1149976, “Novel, extended transition state mimic in HIV-1 protease inhibitors with peripheral C-2-symmetry” (Bioorg Med Chem Lett, 1994).
Activity calls are given as the source filed them. The rule behind the calls is not given here.

Key:
[1] = molecular target: Human immunodeficiency virus type 1 protease (Human immunodeficiency virus 1, UniProt Q72874); experiment: Binding affinity for HIV-1 protease
MT4 = experiment: Inhibition of HIV-1 induced cytopathic effect in HTLV1 transformed MT-4 cells.; assay type: functional; conditions: Homo sapiens, read-out: ED50 (the source's name)
[2] = molecular target: Human immunodeficiency virus type 1 protease (Human immunodeficiency virus 1) (UniProt Q72874); experiment: Percentage inhibition against HIV-1 protease was determined at a concentration of 12.5 uM
[3] = molecular target: Human immunodeficiency virus type 1 protease (Human immunodeficiency virus 1) (UniProt Q72874); experiment: Binding affinity against HIV-1 protease was determined at a concentration 12.5 uM; not active
[4] = molecular target: Human immunodeficiency virus type 1 protease (Human immunodeficiency virus 1) (UniProt Q72874); experiment: Binding affinity against HIV-1 protease was determined at a concentration of 12.5 uM; Not active

Row | inhibition [2] [%] | inhibition [3] | inhibition [4] | Compound | Ki [1] [µM] | EC50 (MT4) [µM]
1 | – | – | – | CC(C)C(NC(=O)OCc1ccccc1)C(=O)N[C@@H](Cc1ccccc1)[C@@H](C(=O)O)[C@H](O)[C@H](Cc1ccccc1)NC(=O)[C@@H](NC(=O)OCc1ccccc1)C(C)C (stereo partly specified) | 0.43 | –
2 | – | – | – | CC(C)C(NC(=O)OCc1ccccc1)C(=O)N[C@@H](Cc1ccccc1)[C@H](CO)[C@@H](O)[C@H](Cc1ccccc1)NC(=O)[C@@H](NC(=O)OCc1ccccc1)C(C)C (single isomer, unassigned; diastereomer B) | 0.51 | > 10
3 | – | – | – | CC(C)[C@H](NC(=O)OCc1ccccc1)C(=O)N[C@@H](Cc1ccccc1)[C@H](O)[C@@H](CO)[C@H](Cc1ccccc1)NC(=O)OC(C)(C)C | 3.7 | > 10
4 | 31 | – | – | CC(C)(C)[C@H](NC(=O)c1nc2ccccc2[nH]1)C(=O)N[C@@H](Cc1ccccc1)[C@@H](O)[C@H](CO)[C@H](Cc1ccccc1)NC(=O)[C@@H](NC(=O)c1nc2ccccc2[nH]1)C(C)(C)C | – | > 10
5 | 42 | – | – | CC(C)(C)[C@H](NC(=O)c1nc2ccccc2[nH]1)C(=O)N[C@@H](Cc1ccccc1)[C@H](O)[C@@H](CO)[C@H](Cc1ccccc1)NC(=O)[C@@H](NC(=O)c1nc2ccccc2[nH]1)C(C)(C)C | – | > 10
6 | – | inactive | – | CC(C)[C@H](NC(=O)OCc1ccccc1)C(=O)N[C@@H](Cc1ccccc1)[C@H](O)[C@@H](C(=O)O)[C@H](Cc1ccccc1)NC(=O)OC(C)(C)C | – | –
7 | 8 | – | – | CC(C)(C)[C@H](N)C(=O)N[C@@H](Cc1ccccc1)[C@H](O)[C@@H](CO)[C@H](Cc1ccccc1)NC(=O)[C@@H](N)C(C)(C)C | – | > 10
8 | – | – | – | CC(C)(C)[C@H](NC(=O)CCc1nc2ccccc2[nH]1)C(=O)N[C@@H](Cc1ccccc1)[C@@H](O)[C@H](CO)[C@H](Cc1ccccc1)NC(=O)[C@@H](NC(=O)CCc1nc2ccccc2[nH]1)C(C)(C)C | 0.009 | 0.52
9 | – | – | – | CC(C)[C@H](NC(=O)OCc1ccccc1)C(=O)N[C@@H](Cc1ccccc1)[C@@H](O)[C@H](CO)[C@H](Cc1ccccc1)NC(=O)C(NC(=O)OCc1ccccc1)C(C)(C)C (stereo partly specified) | 0.016 | 2.5
10 | – | – | – | CC(C)[C@H](NC(=O)OCc1ccccc1)C(=O)N[C@@H](Cc1ccccc1)[C@@H](O)[C@H](CO)[C@H](Cc1ccccc1)NC(=O)OC(C)(C)C | 0.29 | > 10
11 | 18 | – | – | CC(C)[C@H](NC(=O)OCc1ccccc1)C(=O)N[C@@H](Cc1ccccc1)[C@@H](O)[C@H](C(=O)O)[C@H](Cc1ccccc1)NC(=O)OC(C)(C)C | – | –
12 | – | – | – | CC(C)(C)[C@H](NC(=O)OCc1nc2ccccc2[nH]1)C(=O)N[C@@H](Cc1ccccc1)[C@@H](O)[C@H](CO)[C@H](Cc1ccccc1)NC(=O)[C@@H](NC(=O)OCc1nc2ccccc2[nH]1)C(C)(C)C | 0.013 | 0.5
13 | – | – | – | CC(C)[C@H](NC(=O)OCc1ccccc1)C(=O)N[C@@H](Cc1ccccc1)[C@@H](O)[C@H](CO)[C@H](Cc1ccccc1)NC(=O)[C@H](CC(N)=O)NC(=O)OCc1ccccc1 | 0.34 | > 10
14 | – | – | – | CC(C)(C)C(NC(=O)OCc1ccccc1)C(=O)N[C@@H](Cc1ccccc1)[C@@H](CO)[C@H](O)[C@H](Cc1ccccc1)NC(=O)[C@@H](NC(=O)OCc1ccccc1)C(C)(C)C (single isomer, unassigned; diastereomer A) | 0.013 | 1.6
15 | – | – | – | CC(C)(C)[C@H](NC(=O)OCc1nc2ccccc2[nH]1)C(=O)N[C@@H](Cc1ccccc1)[C@H](O)[C@@H](CO)[C@H](Cc1ccccc1)NC(=O)[C@@H](NC(=O)OCc1nc2ccccc2[nH]1)C(C)(C)C | 0.029 | 4.7
16 | 32 | – | – | CC(C)[C@H](NC(=O)OCc1ccccc1)C(=O)N[C@@H](Cc1ccccc1)[C@@H](O)[C@@H](CO)[C@H](Cc1ccccc1)NC(=O)[C@@H](CC(N)=O)NC(=O)OCc1ccccc1 | – | > 10
17 | 22 | – | – | CC(C)(C)[C@H](N)C(=O)N[C@@H](Cc1ccccc1)[C@@H](O)[C@H](CO)[C@H](Cc1ccccc1)NC(=O)[C@@H](N)C(C)(C)C | – | > 10
18 | – | – | inactive | COC(=O)[C@H]([C@@H](O)[C@H](Cc1ccccc1)NC(=O)[C@@H](NC(=O)OCc1ccccc1)C(C)C)[C@H](Cc1ccccc1)NC(=O)OC(C)(C)C | – | –
19 | – | – | – | CC(C)C(NC(=O)OCc1ccccc1)C(=O)N[C@@H](Cc1ccccc1)[C@@H](CO)[C@H](O)[C@H](Cc1ccccc1)NC(=O)[C@@H](NC(=O)OCc1ccccc1)C(C)C (single isomer, unassigned; diastereomer A) | 0.027 | 3.7
20 | – | – | – | CC(C)(C)[C@H](NC(=O)CCc1nc2ccccc2[nH]1)C(=O)N[C@@H](Cc1ccccc1)[C@H](O)[C@@H](CO)[C@H](Cc1ccccc1)NC(=O)[C@@H](NC(=O)CCc1nc2ccccc2[nH]1)C(C)(C)C | 0.16 | > 10
21 | – | – | – | CC(C)(C)C(NC(=O)OCc1ccccc1)C(=O)N[C@@H](Cc1ccccc1)[C@H](CO)[C@@H](O)[C@H](Cc1ccccc1)NC(=O)[C@@H](NC(=O)OCc1ccccc1)C(C)(C)C (single isomer, unassigned; diastereomer B) | 0.255 | > 10
22 | 20 | – | – | COC(=O)[C@@H]([C@H](O)[C@H](Cc1ccccc1)NC(=O)[C@@H](NC(=O)OCc1ccccc1)C(C)C)[C@H](Cc1ccccc1)NC(=O)OC(C)(C)C | – | –
23 | 39 | – | – | CC(C)[C@H](NC(=O)OCc1ccccc1)C(=O)N[C@@H](Cc1ccccc1)[C@H](O)[C@@H](CO)[C@H](Cc1ccccc1)NC(=O)C(NC(=O)OCc1ccccc1)C(C)(C)C (single isomer, unassigned; diastereomer B) | – | > 10
